In paper PMC11418212, “Characterization of four structurally diverse inhibitors of SUR2-containing KATP channels” (Channels, 2024):

Key:
Test in all cases: Kir family selectivity thallium flux assay
Assay type in all cases: cell-based
Kir1.1 = target: T1, Kir1.1 (Homo sapiens, UniProt P48048)
T1 construct: expressed in transfected cells
T1 sequence (P48048 1-391): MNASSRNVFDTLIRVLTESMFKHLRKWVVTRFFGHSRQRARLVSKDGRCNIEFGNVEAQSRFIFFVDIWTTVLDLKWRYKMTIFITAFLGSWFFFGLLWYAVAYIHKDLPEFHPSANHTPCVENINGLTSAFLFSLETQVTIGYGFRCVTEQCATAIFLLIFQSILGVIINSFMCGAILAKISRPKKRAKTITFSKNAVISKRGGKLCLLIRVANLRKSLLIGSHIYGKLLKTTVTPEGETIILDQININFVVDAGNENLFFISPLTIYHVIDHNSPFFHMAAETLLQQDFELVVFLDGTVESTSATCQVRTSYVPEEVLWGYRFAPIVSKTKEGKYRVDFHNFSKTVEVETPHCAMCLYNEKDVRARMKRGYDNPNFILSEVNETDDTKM
Description: (§1) Thallium flux assays were conducted using the established methods. Stably transfected T-REx-HEK-293 cells expressing Kir6.2/SUR1 or Kir6.1/SUR2B were cultured overnight in polyamine-coated plates (black-walled, clear-bottomed; BD, Bedford, MA) at a density of 20,000 cells in 20 µl per well of cell culture media. The expression of Kir6.2/SUR1 or Kir6.1/SUR2B channels was induced by treating cells with 1 µg/ml tetracycline overnight. The following day, cells were rinsed with an assay buffer (Hanks’ Balanced Salt Solution supplied with 20 mM HEPES), loaded with the thallium-sensor dye Brilliant Thallos-AM AM (Ion Bioscience, San Marcos, TX) for 1 h, and then washed again with assay buffer to remove unincorporated dye. The cell plate was subsequently placed in a Panoptic Kinetic Imaging Plate Reader (Wavefront Bioscience, Franklin, TN) and imaged at a frequency of 1 Hz using 482/35 nm (excitation) and 536/40 nm (emission) filter sets. Kir6.1/SUR2B channels were activated with 10 µM pinacidil, whereas Kir6.1/SUR1 was activated with 30 µM VU0071063 [34]. To activate KATP channels independent of activators with ATP-depletion method, cells were treated with a cocktail of metabolic inhibitors (2.5 mM sodium cyanide and 20 mM 2-deoxy glucose) for 25 min before imagine. Control and test compounds diluted freshly from DMSO stocks into assay buffer were added to wells for four minutes before adding 0.5 mM chloride-free thallium stimulus buffer (Ion Bioscience) to initiate thallium flux through the expressed KATP channels. Thallium flux was recorded from all 384-wells for 2 min before terminating the experiment. […] Selectivity assays against other Kir channels were performed as described previously.
(§2) To begin elucidating the binding site location of VU0212387, VU0543336, VU0605768, and VU0544086, we evaluated the activity of the inhibitors against KATP channels composed of different Kir and SUR subunit combinations expressed in HEK293 cells. Specifically, the compounds were tested against Kir6.1/SUR1, Kir6.2/SUR1, Kir6.1/SUR2A, Kir6.2/SUR2A, Kir6.1/SUR2B, and Kir6.2/SUR2B at a dose of 3 µM. […] We expanded the selectivity analysis to include 10 other members of the Kir channel family.

Kir2.2 = target: T2, Kir2.2 (Homo sapiens, UniProt Q14500)
T2 construct: expressed in transfected cells
T2 sequence (Q14500 1-433): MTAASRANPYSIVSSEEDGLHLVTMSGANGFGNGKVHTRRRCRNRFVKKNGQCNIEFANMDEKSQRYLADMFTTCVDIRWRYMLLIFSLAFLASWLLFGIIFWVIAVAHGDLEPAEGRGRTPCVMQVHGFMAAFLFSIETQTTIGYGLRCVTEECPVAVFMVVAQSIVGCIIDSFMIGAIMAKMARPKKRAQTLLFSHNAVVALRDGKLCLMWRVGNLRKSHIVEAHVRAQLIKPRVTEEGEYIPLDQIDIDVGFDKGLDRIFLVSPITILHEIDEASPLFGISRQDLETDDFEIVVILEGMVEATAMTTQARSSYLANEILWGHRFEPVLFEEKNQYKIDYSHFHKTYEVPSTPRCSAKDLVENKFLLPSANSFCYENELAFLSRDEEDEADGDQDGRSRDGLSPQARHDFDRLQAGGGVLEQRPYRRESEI
Description: as §1, §2

Kir3.1/3.4 = target: T3, Kir3.1/3.4 (Homo sapiens, UniProt P48544+P48549); conditions: for IC50: thallium flux
T3 construct: expressed in transfected cells
T3 sequence (P48549 1-501): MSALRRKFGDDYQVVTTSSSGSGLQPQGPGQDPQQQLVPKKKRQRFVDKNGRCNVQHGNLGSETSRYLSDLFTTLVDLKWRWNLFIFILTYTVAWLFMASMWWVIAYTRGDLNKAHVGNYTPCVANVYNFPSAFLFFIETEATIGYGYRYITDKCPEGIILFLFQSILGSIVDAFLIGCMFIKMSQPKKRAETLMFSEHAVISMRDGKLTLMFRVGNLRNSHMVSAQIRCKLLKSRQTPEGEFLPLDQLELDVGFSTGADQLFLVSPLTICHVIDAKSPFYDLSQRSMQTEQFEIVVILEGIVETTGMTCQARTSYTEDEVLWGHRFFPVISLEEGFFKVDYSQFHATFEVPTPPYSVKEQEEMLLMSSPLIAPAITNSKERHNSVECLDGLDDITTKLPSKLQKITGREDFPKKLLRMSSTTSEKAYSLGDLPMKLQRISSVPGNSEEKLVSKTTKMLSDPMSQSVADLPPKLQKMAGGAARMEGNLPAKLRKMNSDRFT
T3 sequence (P48544 1-419): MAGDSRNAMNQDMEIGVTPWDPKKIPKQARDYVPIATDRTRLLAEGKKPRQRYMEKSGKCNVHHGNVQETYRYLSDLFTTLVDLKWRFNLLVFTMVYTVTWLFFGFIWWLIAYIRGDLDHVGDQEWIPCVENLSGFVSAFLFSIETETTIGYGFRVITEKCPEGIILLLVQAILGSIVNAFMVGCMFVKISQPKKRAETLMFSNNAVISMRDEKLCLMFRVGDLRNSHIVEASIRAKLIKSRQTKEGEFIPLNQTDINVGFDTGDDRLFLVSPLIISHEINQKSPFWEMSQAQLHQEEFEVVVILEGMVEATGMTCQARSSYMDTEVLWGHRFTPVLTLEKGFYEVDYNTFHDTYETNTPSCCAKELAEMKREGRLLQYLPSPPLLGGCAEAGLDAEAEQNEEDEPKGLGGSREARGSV
Description: as §1, §2

O=C(NCc1cc(-c2ccncc2)n(C2CCCC2)n1)Nc1cccs1 [VU0544086, 1-((1-cyclopentyl-5-(pyridin-4-yl)-1 H-pyrazol-3-yl)methyl)-3-(thiophen-2-yl)urea]
IC50 (Kir1.1): > 30 µM
IC50 (Kir2.2): > 30 µM
inhibition at 30 µM (Kir3.1/3.4; observed at 30 µM, read-out: Percent maximal inhibition of Kir3.1/3.4): 92%
IC50 (Kir3.1/3.4): 16.2 µM

O=C(NCC(O)(c1ccccc1)C(F)(F)F)c1ccc(OC(F)(F)F)cc1 (stereo not shown) [VU0543336, N-(3,3,3-trifluoro-2-hydroxy-2-phenylpropyl)-4-(trifluoromethoxy)benzamide]
IC50 (Kir1.1): > 30 µM
IC50 (Kir2.2): > 30 µM
IC50 (Kir3.1/3.4): > 30 µM

O=C1c2oc3ccccc3c(=O)c2C(c2cccc(Br)c2)N1CCO (stereo not shown) [VU0605768, 1-(3-bromophenyl)-2-(2-hydroxyethyl)-1,2-dihydrochromeno[2,3-c]pyrrole-3,9-dione]
IC50 (Kir1.1): > 30 µM
IC50 (Kir2.2): > 30 µM
IC50 (Kir3.1/3.4): > 30 µM

c1ccc2[nH]c(CSc3ncnc4c3oc3ccccc34)nc2c1 [VU0212387, 4-(((1 H-benzo[d]imidazol-2-yl)methyl)thio)benzofuro[3,2-d]pyrimidine]
IC50 (Kir1.1): > 30 µM
IC50 (Kir2.2): > 30 µM
IC50 (Kir3.1/3.4): > 30 µM
